Results as given in US20210308171A1, “METHODS FOR COMBINATORIAL SCREENING AND USE OF THERAPEUTIC TARGETS THEREOF” (THE BROAD INSTITUTE, INC., priority 2018, published 2021).

Tests used:
293T cells = test: SaCas9 tiling library 6-thioguanine resistance screen; type: cell-based
Protocol: FIG. 10—Development of SaCas9 on-target rules. (a) Representation of all SaCas9 sgRNAs tested according to group and gene. sgRNAs are grouped based on whether the target gene is assayed by 6-thioguanine resistance, cell viability, or vemurafenib resistance. Control sgRNAs are also indicated. (b) Log 2 fold change of sgRNAs relative to their starting abundance in the plasmid DNA library in cell viability and resistance experiments. That knockout of NUDTS confers 6-thioguanine resistance in 293T cells but not A375 cell is expected based on previous results^16. P-values: Kruskal-Wallis test with Dunn's multiple comparisons test for each gene relative to the set of non-targeting controls. Significance labels: ns, not significant; *P<0.05; **P<0.01; ***P<0.001; ****P<0.0001.
Applicants designed a second tiling library with all sgRNAs with an NNGRR PAM that targeted 9 genes with known phenotypes in viability and drug resistance assays, a total of 5,327 sgRNAs, including controls (FIG. 10a). Applicants performed viability screens in three cell lines (A375, 293T, MOLM13), and screened relevant cell lines for 6-thioguanine (A375, 293T) and vemurafenib resistance (A375).

[1] = test system: MV4-11 (AML MLL-AF4) cells; test: BRD4 inhibitor dose response +/- WDR77 KO; type: cell-based
From the text: FIG. 36—illustrates that WDR77 KO sensitizes MV4-11 (AML MLL-AF4) cells to AZD5153 treatment.

[2] = test system: THP-1 (AML MLL-AF9) cells; test: BRD4 inhibitor dose response +/- WDR77 KO
Protocol: JQ1 dose response+/−WDR77 KO. Octuplicate wells. Repeated with two sgRNAs.
The experiments were performed in octuplicate wells and repeated with two sgRNAs. FIGS. 35 and 36 show AZD5153 dose response curves in THP-1 and MV4-11 cells that are +/−WDR77 knock-out.

Meljuso cells = test: Apoptosis Big Papi library screen with inhibitors of anti-apoptotic proteins; type: cell-based, human; details: 250 nM, on/off dosing
Protocol: (e) In Meljuso cells with single gene knockouts, comparison of resistance and sensitization phenotypes for two small molecules. The fold change values are calculated relative to the no drug arm for targeting sgRNAs paired with the 6T and HPRT intron controls. Genes of interest are colored and labeled. (f) Buffering interactions in Meljuso cells for combinations of multidomain apoptotic genes with BH3-only sensitizer genes in different growth conditions. Data from the three small molecules were combined for the final column. Heat map scale is the same as in panel c. (g) Buffering interactions in Meljuso cells for combinations of pro-apoptotic genes and caspase genes in standard growth conditions and the combined data from the three small molecules. Heat map scale is the same as in panel c.
Applicants next analyzed Meljuso cells screened with inhibitors, first examining single gene effects.
To examine combinatorial phenotypes, Applicants combined data across the three BCL2L1 inhibitors, to minimize effects due to molecule-specific mechanism of action.
Infections were conducted as described above for the SynLet library. […] All small molecules were screened at 250 nM with an on/off dosing schedule, in which cells were treated with small-molecule for 4 days and then grown in standard growth conditions for 3 days, and then this cycle was repeated for an additional week. All arms were collected at 21 days post-infection. For Meljuso cells, all three replicates were prepared and sequenced separately.

[3] = test system: Meljuso, OVCAR8, and A549 cells; test: Cell Titer Glo viability of cells transduced with single SaCas9 sgRNAs (MCL1, BCL2L1, BCL2L2 or controls) and treated with small molecule inhibitors; type: cell-based; details: 3 days; for synergy of small molecule with sgRNAs targeting MCL1 (cell viability): both sgRNAs targeting MCL1, dosed from 1 nM to 1 μM
Protocol: (b) Validation of genetic interactions with individual gene knockout combined with small molecules. Seven days after transduction with lentivirus expressing individual sgRNAs, cells were incubated with small molecules for three days before assaying viability by Cell Titer Glo. Points represent the average and whiskers represent the maximum and minimum of two replicate wells. […] Cells were incubated with small molecules for three days before assaying viability by Cell Titer Glo (top).
(a) As in FIG. 5b, cells were infected with individual sgRNAs and 7 days post-infection treated with small molecules over a range of doses. Cell viability was determined by Cell Titer Glo after 3 days.
Meljuso, OVCAR8, and A549 cells were transduced with single SaCas9 sgRNAs targeting MCL1, BCL2L1, or BCL2L2, or controls. […] Cells were dosed from 1 nM to 1 μM, and cell viability assessed (FIG. 5b, FIG. 15a).
Meljuso cells were transduced in 12-well plates, as described above, with lentivirus containing a single sgRNA targeting one of the anti-apoptotic genes (BCL2L1, BCL2L2, MCL1) or a control sgRNA either targeting CD81 or containing a run of 6 thymidines. Two days after transduction, cells were selected using puromycin at 1 μg/mL for five days. After puromycin selection, 3,000 cells were seeded into 96-well plates. Across each row of the 96-well plate, a different small molecule was added at 11 log 2-dilutions ranging from 1 μM to approximately 1 nM in duplicate for each of the cell lines. […] After 3 days in the presence of the small molecule, viability of the cell population was assayed by CellTiterGlo (Promega) according to the manufacturer's instructions.

Compound: Nc1nc2nc[nH]c2c(=S)[nH]1 [6-thioguanine]
- effect of knockout of NUDTS on response to the drug (293T cells): resistance

Compound: COc1nnc2ccc(N3CCC(c4ccc(OCCN5CCN(C)C(=O)[C@H]5C)cc4)CC3)nn12 [AZD5153]
- effect of WDR77 KO on response to treatment [1]: sensitizes
- effect of WDR77 KO on response to treatment [2]: sensitizes

Compound: Cc1c(-c2c(-c3ccc(F)o3)sc3ncnc(O[C@H](Cc4ccccc4OCc4ccnn4CC(F)(F)F)C(=O)O)c23)ccc(OCCN2CCN(C)CC2)c1Cl [S63845]
- synergy with BCL2L1 knockout (single gene effect in screen) (Meljuso cells; relative to no drug arm): synergized
- synergy of small molecule with sgRNAs targeting BCL2L1 (cell viability) ([3]; sgRNAs targeting BCL2L1, dosed from 1 nM to 1 μM): synergized specifically

Compound: Cc1sc2c(c1C)C(c1ccc(Cl)cc1)=N[C@@H](CC(=O)OC(C)(C)C)c1nnc(C)n1-2 [JQ1]
- effect of WDR77 KO on response to treatment [2]: sensitizes

Compound: Cc1c(-c2ccc(N3CCc4cccc(C(=O)Nc5nc6ccccc6s5)c4C3)nc2C(=O)O)cnn1CC12CC3CC(CC(C3)C1)C2 [A-1331852]
- synergy of small molecule with sgRNAs targeting MCL1 (cell viability) [3]: strongly synergized

Compound: CC1(C)CCC(c2ccc(Cl)cc2)=C(CN2CCN(c3ccc(C(=O)NS(=O)(=O)c4ccc(N[C@H](CCN5CCOCC5)CSc5ccccc5)c(S(=O)(=O)C(F)(F)F)c4)cc3)CC2)C1 [navitoclax]
- effect of knockout of BAX and PMAIP1 (Noxa) on response to the small molecule (Meljuso cells): resistance
- effect of knockout of BCL2A1 on response to the small molecule (Meljuso cells): sensitized
- synergy with MCL1 knockout (single gene effect in screen) (Meljuso cells; relative to no drug arm): synergized
- synergy of small molecule with sgRNAs targeting MCL1 (cell viability) [3]: strongly synergized
